Measured values from PubChem BioAssay (NCI).
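Method: 48-hour compound exposure of cells in 96-well plates, five concentrations, linear interpolation of endpoints. TGI is the concentration that stops growth completely.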

Tests used:
Experiment in all cases: NCI anticancer screen, dose series, 48 h
RXF-631 renal = test system: RXF-631 renal
DMS 114 small cell lung = test system: DMS 114 small cell lung
786-0 renal = test system: 786-0 renal
SF-295 CNS = test system: SF-295 CNS
RXF 393 renal = test system: RXF 393 renal
A549 NSCLC = test system: A549 NSCLC
LOX IMVI melanoma = test system: LOX IMVI melanoma
NCI-H522 lung = test system: NCI-H522 lung
SNB-75 CNS = test system: SNB-75 CNS
OVCAR-3 ovarian = test system: OVCAR-3 ovarian
RPMI-8226 leukemia = test system: RPMI-8226 leukemia
SF-268 CNS = test system: SF-268 CNS
HCT-15 colon = test system: HCT-15 colon
XF 498 CNS = test system: XF 498 CNS
CCRF-CEM leukemia = test system: CCRF-CEM leukemia
HCT-116 colon = test system: HCT-116 colon
HCC-2998 colon = test system: HCC-2998 colon
HOP-92 NSCLC = test system: HOP-92 NSCLC
SK-MEL-28 melanoma = test system: SK-MEL-28 melanoma
HL-60(TB) leukemia = test system: HL-60(TB) leukemia
SK-MEL-5 melanoma = test system: SK-MEL-5 melanoma
K-562 leukemia = test system: K-562 leukemia
SN12C renal = test system: SN12C renal
IGROV1 ovarian = test system: IGROV1 ovarian
SNB-78 CNS = test system: SNB-78 CNS
OVCAR-8 ovarian = test system: OVCAR-8 ovarian
SNB-19 CNS = test system: SNB-19 CNS
NCI-H23 lung = test system: NCI-H23 lung
KM12 colon = test system: KM12 colon
UO-31 renal = test system: UO-31 renal
NCI-H460 lung = test system: NCI-H460 lung
LXFL 529 NSCLC = test system: LXFL 529 NSCLC
SW-620 colon = test system: SW-620 colon
COLO 205 colon = test system: COLO 205 colon
MALME-3M melanoma = test system: MALME-3M melanoma
M14 melanoma = test system: M14 melanoma
OVCAR-5 ovarian = test system: OVCAR-5 ovarian
TK-10 renal = test system: TK-10 renal
UACC-62 melanoma = test system: UACC-62 melanoma
DLD-1 colon = test system: DLD-1 colon
ACHN renal = test system: ACHN renal
EKVX NSCLC = test system: EKVX NSCLC
SK-MEL-2 melanoma = test system: SK-MEL-2 melanoma
HOP-62 NSCLC = test system: HOP-62 NSCLC
MOLT-4 leukemia = test system: MOLT-4 leukemia
HT29 colon = test system: HT29 colon
U251 CNS = test system: U251 CNS
DMS 273 small cell lung = test system: DMS 273 small cell lung
M19-MEL melanoma = test system: M19-MEL melanoma
OVCAR-4 ovarian = test system: OVCAR-4 ovarian
UACC-257 melanoma = test system: UACC-257 melanoma
KM20L2 colon = test system: KM20L2 colon
SF-539 CNS = test system: SF-539 CNS
SK-OV-3 ovarian = test system: SK-OV-3 ovarian
A498 renal = test system: A498 renal
CAKI-1 renal = test system: CAKI-1 renal
NCI-H226 lung = test system: NCI-H226 lung
MDA-MB-435 = test system: MDA-MB-435
NCI/ADR-RES ovarian = test system: NCI/ADR-RES ovarian
MCF7 breast = test system: MCF7 breast
T-47D breast = test system: T-47D breast
PC-3 prostate = test system: PC-3 prostate
MDA-N = test system: MDA-N
BT-549 breast = test system: BT-549 breast
DU-145 prostate = test system: DU-145 prostate
HS 578T breast = test system: HS 578T breast
MDA-MB-231 breast = test system: MDA-MB-231 breast
SR leukemia = test system: SR leukemia

SMILES: Cc1cc2c(c3c1c1ccccc1n3C)C(=O)c1ccccc1C2=O
- TGI (RXF-631 renal): > 100 µM
- TGI (DMS 114 small cell lung): > 100 µM
- TGI (786-0 renal): > 100 µM
- TGI (SF-295 CNS): > 100 µM
- TGI (RXF 393 renal): > 100 µM
- TGI (A549 NSCLC): > 100 µM
- TGI (LOX IMVI melanoma): > 100 µM
- TGI (NCI-H522 lung): > 100 µM
- TGI (SNB-75 CNS): > 100 µM
- TGI (OVCAR-3 ovarian): > 100 µM
- TGI (RPMI-8226 leukemia): > 100 µM
- TGI (SF-268 CNS): > 100 µM
- TGI (HCT-15 colon): > 100 µM
- TGI (XF 498 CNS): > 100 µM
- TGI (CCRF-CEM leukemia): > 100 µM
- TGI (HCT-116 colon): > 100 µM
- TGI (HCC-2998 colon): > 100 µM
- TGI (HOP-92 NSCLC): > 100 µM
- TGI (SK-MEL-28 melanoma): > 100 µM
- TGI (HL-60(TB) leukemia): > 100 µM
- TGI (SK-MEL-5 melanoma): > 100 µM
- TGI (K-562 leukemia): > 100 µM
- TGI (SN12C renal): > 100 µM
- TGI (IGROV1 ovarian): > 100 µM
- TGI (SNB-78 CNS): > 100 µM
- TGI (OVCAR-8 ovarian): > 100 µM
- TGI (SNB-19 CNS): > 100 µM
- TGI (NCI-H23 lung): > 100 µM
- TGI (KM12 colon): > 100 µM
- TGI (UO-31 renal): > 100 µM
- TGI (NCI-H460 lung): > 100 µM
- TGI (LXFL 529 NSCLC): > 100 µM
- TGI (SW-620 colon): > 100 µM
- TGI (COLO 205 colon): > 100 µM
- TGI (MALME-3M melanoma): > 100 µM
- TGI (M14 melanoma): > 100 µM
- TGI (OVCAR-5 ovarian): > 100 µM
- TGI (TK-10 renal): > 100 µM
- TGI (UACC-62 melanoma): > 100 µM
- TGI (DLD-1 colon): > 100 µM
- TGI (ACHN renal): > 100 µM
- TGI (EKVX NSCLC): > 100 µM
- TGI (SK-MEL-2 melanoma): > 100 µM
- TGI (HOP-62 NSCLC): > 100 µM
- TGI (MOLT-4 leukemia): > 100 µM
- TGI (HT29 colon): > 100 µM
- TGI (U251 CNS): > 100 µM
- TGI (DMS 273 small cell lung): > 100 µM
- TGI (M19-MEL melanoma): > 100 µM
- TGI (OVCAR-4 ovarian): > 100 µM
- TGI (UACC-257 melanoma): > 100 µM
- TGI (KM20L2 colon): > 100 µM
- TGI (SF-539 CNS): > 100 µM

SMILES: CCOP(=O)(OCC)C1CC(C)OC1=O (stereo not given)
- TGI (RXF-631 renal): > 100 µM
- TGI (DMS 114 small cell lung): > 100 µM
- TGI (786-0 renal): > 100 µM
- TGI (SF-295 CNS): > 100 µM
- TGI (RXF 393 renal): > 100 µM
- TGI (A549 NSCLC): > 100 µM
- TGI (LOX IMVI melanoma): > 100 µM
- TGI (SNB-75 CNS): > 100 µM
- TGI (OVCAR-3 ovarian): > 100 µM
- TGI (RPMI-8226 leukemia): > 100 µM
- TGI (SF-268 CNS): > 100 µM
- TGI (HCT-15 colon): > 100 µM
- TGI (XF 498 CNS): > 100 µM
- TGI (CCRF-CEM leukemia): > 100 µM
- TGI (SK-OV-3 ovarian): > 100 µM
- TGI (HCT-116 colon): > 100 µM
- TGI (HCC-2998 colon): > 100 µM
- TGI (SK-MEL-28 melanoma): > 100 µM
- TGI (HL-60(TB) leukemia): > 100 µM
- TGI (SK-MEL-5 melanoma): > 100 µM
- TGI (K-562 leukemia): > 100 µM
- TGI (SN12C renal): > 100 µM
- TGI (IGROV1 ovarian): > 100 µM
- TGI (SNB-78 CNS): > 100 µM
- TGI (OVCAR-8 ovarian): > 100 µM
- TGI (SNB-19 CNS): > 100 µM
- TGI (NCI-H23 lung): > 100 µM
- TGI (KM12 colon): > 100 µM
- TGI (UO-31 renal): > 100 µM
- TGI (NCI-H460 lung): > 100 µM
- TGI (LXFL 529 NSCLC): > 100 µM
- TGI (SW-620 colon): > 100 µM
- TGI (COLO 205 colon): > 100 µM
- TGI (MALME-3M melanoma): > 100 µM
- TGI (A498 renal): > 100 µM
- TGI (M14 melanoma): > 100 µM
- TGI (OVCAR-5 ovarian): > 100 µM
- TGI (TK-10 renal): > 100 µM
- TGI (CAKI-1 renal): > 100 µM
- TGI (UACC-62 melanoma): > 100 µM
- TGI (DLD-1 colon): > 100 µM
- TGI (ACHN renal): > 100 µM
- TGI (EKVX NSCLC): > 100 µM
- TGI (SK-MEL-2 melanoma): > 100 µM
- TGI (HOP-62 NSCLC): > 100 µM
- TGI (MOLT-4 leukemia): > 100 µM
- TGI (HT29 colon): > 100 µM
- TGI (U251 CNS): > 100 µM
- TGI (DMS 273 small cell lung): > 100 µM
- TGI (M19-MEL melanoma): > 100 µM
- TGI (OVCAR-4 ovarian): > 100 µM
- TGI (UACC-257 melanoma): > 100 µM
- TGI (KM20L2 colon): > 100 µM
- TGI (SF-539 CNS): > 100 µM

SMILES: O=[As]O
- TGI (NCI-H226 lung): > 100 µM
- TGI (RXF-631 renal): 22.5 µM
- TGI (DMS 114 small cell lung): 40.3 µM
- TGI (786-0 renal): > 100 µM
- TGI (SF-295 CNS): > 100 µM
- TGI (RXF 393 renal): > 93.5 µM
- TGI (A549 NSCLC): > 100 µM
- TGI (MDA-MB-435): > 100 µM
- TGI (NCI/ADR-RES ovarian): > 100 µM
- TGI (LOX IMVI melanoma): 96.9 µM
- TGI (NCI-H522 lung): > 60.5 µM
- TGI (SNB-75 CNS): 97.2 µM
- TGI (OVCAR-3 ovarian): > 74.1 µM
- TGI (MCF7 breast): > 100 µM
- TGI (RPMI-8226 leukemia): > 100 µM
- TGI (SF-268 CNS): > 74.4 µM
- TGI (HCT-15 colon): > 100 µM
- TGI (XF 498 CNS): 36.8 µM
- TGI (CCRF-CEM leukemia): > 66.8 µM
- TGI (SK-OV-3 ovarian): > 100 µM
- TGI (HCT-116 colon): > 100 µM
- TGI (HCC-2998 colon): > 100 µM
- TGI (HOP-92 NSCLC): > 91.5 µM
- TGI (T-47D breast): > 100 µM
- TGI (SK-MEL-28 melanoma): > 100 µM
- TGI (HL-60(TB) leukemia): 18.5 µM
- TGI (PC-3 prostate): > 100 µM
- TGI (SK-MEL-5 melanoma): > 61.8 µM
- TGI (K-562 leukemia): > 89.5 µM
- TGI (SN12C renal): > 95.1 µM
- TGI (IGROV1 ovarian): > 60.4 µM
- TGI (SNB-78 CNS): > 100 µM
- TGI (OVCAR-8 ovarian): > 70.1 µM
- TGI (SNB-19 CNS): > 100 µM
- TGI (NCI-H23 lung): > 100 µM
- TGI (KM12 colon): > 100 µM
- TGI (UO-31 renal): > 100 µM
- TGI (NCI-H460 lung): > 100 µM
- TGI (LXFL 529 NSCLC): > 100 µM
- TGI (MDA-N): > 100 µM
- TGI (BT-549 breast): > 100 µM
- TGI (SW-620 colon): > 100 µM
- TGI (COLO 205 colon): > 100 µM
- TGI (MALME-3M melanoma): > 59.9 µM
- TGI (A498 renal): > 100 µM
- TGI (M14 melanoma): > 96.1 µM
- TGI (OVCAR-5 ovarian): > 100 µM
- TGI (TK-10 renal): > 100 µM
- TGI (DU-145 prostate): > 100 µM
- TGI (CAKI-1 renal): > 100 µM
- TGI (UACC-62 melanoma): > 59.3 µM
- TGI (DLD-1 colon): > 100 µM
- TGI (ACHN renal): > 100 µM
- TGI (EKVX NSCLC): > 100 µM
- TGI (HS 578T breast): > 100 µM
- TGI (SK-MEL-2 melanoma): > 100 µM
- TGI (MDA-MB-231 breast): > 100 µM
- TGI (HOP-62 NSCLC): > 100 µM
- TGI (MOLT-4 leukemia): > 100 µM
- TGI (HT29 colon): > 100 µM
- TGI (U251 CNS): > 52.8 µM
- TGI (DMS 273 small cell lung): > 100 µM
- TGI (M19-MEL melanoma): 63.6 µM
- TGI (OVCAR-4 ovarian): > 100 µM
- TGI (UACC-257 melanoma): > 93.3 µM
- TGI (KM20L2 colon): > 100 µM
- TGI (SR leukemia): > 71.5 µM
- TGI (SF-539 CNS): > 54.3 µM
